The text below walks through data of PMC7998250, “Temperate Zone Plant Natural Products—A Novel Resource for Activity against Tropical Parasitic Diseases” (Pharmaceuticals, 2021).

Where two headings read alike, the source gives them in different places.

Data set [1] is described as follows: Cytotoxicity CC50, differentiated THP-1, Alamar Blue. In kind it is cell-based, human. To be noted: human. The text has this:
The four lanosterone-like sterols derived from the Noble Fir Abies procera (700022, 700107, 700136) and the Grand Fir Abies grandis (700240) were the only initial compounds taken forward for L. mexicana due to their nanomolar activity and apparent low cytotoxicity (Figure 3a). […] Understanding the impact of the ring-opened lactone head group in this compound compared to the other three warrants further analysis in exploring their structure-activity relationships. These four sterols were also tested for growth inhibitory activity against L. donovani axenic amastigotes. […] As Leishmania spp. amastigotes typically reside with macrophages, further cytotoxicity assays with these sterols were performed against an activated monocyte cell line (THP-1) (Figure 4b). […]
A general note: Resazurin is reduced to fluorescent resorufin, in cell work by metabolically active cells.

For data set [2], the system named is T. brucei. The data set can be described thus: Concentration-response EC50, T. brucei. In kind it is cell-based, Trypanosoma brucei brucei. To be noted: 48 h, 48 h.
Text: Initial hits from the parasite panel screen were taken forward in log concentration versus normalised response assays to estimate the half maximal effective concentration (EC50) in hit species as well as the half maximal cytotoxic concentrations (CC50) in the human hepatoma cell line HepG2 as a preliminary test for selectivity. Using CC50/EC50 to define the selectivity index (SI), the selectivity for each compound in a defined species compared to a human cell line was estimated and compared to the EC50 (Figure 3).
EC50 values were determined by serial two-fold dilution of each compound in 96 well plates. Culture conditions and viability assays were as stated for the initial screen, with some exceptions. L. mexicana and L. donovani axenic amastigotes were seeded at 2 × 10^6 cell/s mL, T. brucei and T. evansi were seeded at 2 × 10^5 cells/mL. For cytotoxicity studies, HepG2 cells were seeded at 1 × 10^5 cells/mL, incubated for 48 h and viability was assessed using the Alamar Blue assay [66, 67]. […] Normalised growth and viability data (compared to untreated controls) were plotted against Log10 concentration to estimate EC50 in GraphPad (Prism v6).
Data set [3] deals with T. evansi bloodstream form. The data set can be described thus: Initial screen, T. evansi bloodstream form, Alamar Blue. In kind it is cell-based, Trypanosoma evansi. The settings on record: for activity at 1 µM / inhibition of growth at 1 µM: Trypanosoma evansi; for inhibition of growth at 1 µM: read-out: initial hit T.e. Summed up: (§1)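 Bloodstream-form T. evansi Antat 3/3 and T. brucei Lister 427 were grown in HMI-11 with 10% FBS at 37 °C. Parasites were plated at 1×10^5 cells/mL with compound at 1 μM (T. evansi) or 2 μM (T. brucei) for 48 h, and growth was read by Alamar Blue relative to 1% DMSO controls (n = 6).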

Data set [4] concerns P. falciparum Dd2Luc intraerythrocytic trophozoites. Briefly: Initial screen, intraerythrocytic P. falciparum, Malaria SYBR-Green I fluorescence assay. In kind it is cell-based, Plasmodium falciparum. To be noted: for activity at 2 µM / inhibition of growth at 2 µM: Plasmodium falciparum, 48 h; for initial hit against P. falciparum: 2 μM, growth reduced by ≥50%; for inhibition of growth at 2 µM: read-out: initial hit P.f. The gist of the method: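 L. mexicana axenic amastigotes at 1 × 10^6 cells/mL exposed 72 h to compounds at 2 μM, growth read by Alamar Blue; P. falciparum trophozoites at 0.5% parasitaemia, 2% haematocrit, 48 h at 2 μM, SYBR-Green I read-out. Growth normalised to 1% DMSO; hits ≥50% growth reduction.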

Data set [5] deals with T. brucei bloodstream form. The data set can be described thus: Initial screen, T. brucei bloodstream form, Alamar Blue. In kind it is cell-based, Trypanosoma brucei brucei. The settings on record: for initial hit against T. brucei: growth reduced by ≥50%; for activity at 2 µM / inhibition of growth at 2 µM: Trypanosoma brucei; for inhibition of growth at 2 µM: read-out: initial hit T.b. Summed up: as §1

Setting [6] is: differentiated THP-1, 48 h, read-out: THP1 CC50.
Setting [7] is: read-out: mean % growth, P. falciparum, initial screen, compared to a normalised control with same concentration of DMSO solvent.
[8] abbreviates: Trypanosoma brucei, read-out: T. brucei EC50, bloodstream form, 48 h.
The mark [9] stands for this setting: read-out: %growth P. falciparum, mean % growth compared to a normalised control with same concentration of DMSO solvent, initial screen.
Where [10] appears, read: read-out: mean % growth, T. evansi, initial screen, compared to a normalised control with same concentration of DMSO solvent.
Where [11] appears, read: read-out: mean % growth, T. b. brucei, initial screen, compared to a normalised control with same concentration of DMSO solvent.
Where [12] appears, read: mean % growth compared to a normalised control with same concentration of DMSO solvent, initial screen, read-out: % growth T. evansi.
The mark [13] stands for this setting: mean % growth compared to a normalised control with same concentration of DMSO solvent, initial screen, read-out: % growth T. b. brucei.
The mark [14] stands for this setting: initial screen, compared to a normalised control with same concentration of DMSO solvent.

Turning to `C=C1C(=O)OC2CC(C)C3C(OC)CC(=O)C3(C)C(OC(=O)C(C)CC)C12` (centres unmarked) [Compound 701159], the CC50 at 48 h in data set [1] (setting [6]) was 1.42 µM. For the same molecule, the EC50 in data set [2] (Trypanosoma brucei, bloodstream form, read-out: T. brucei EC50) came out at 0.39 µM. In addition, the activity at 1 µM in data set [3] (initial screen, compared to a normalised control with same concentration of DMSO solvent, read-out: mean % growth, T. evansi) was 82%. Besides, the activity at 2 µM in data set [4] (setting [7]) was found to be 83.7%; in data set [5] (initial screen, compared to a normalised control with same concentration of DMSO solvent, read-out: mean % growth, T. b. brucei), 13.7%. Besides, the “initial hit against T. brucei” value in data set [5] (2 μM) is “initial hits”. The inhibition of growth at 2 µM in data set [5] (2 μM, x = initial hit) is > 50%.

With `CC1OC(OC2C(OC(=O)C3CC[C@@H]4[C@H](C3)OC3(CC(OC(=O)/C=C/c5ccccc5)[C@@H](C)CO3)C43CO3)OC(CO)C(O)C2O)C(O)C(O)C1O` (some centres unmarked) [Compound 700042], the EC50 in data set [2] (setting [8]) stood at 0.41 µM. Besides, the activity at 1 µM in data set [3] (read-out: % growth T. evansi, mean % growth compared to a normalised control with same concentration of DMSO solvent, initial screen) is 40.2%. Besides, in data set [3], the inhibition of growth at 1 µM is > 50%. Moreover, the “initial hit against P. falciparum” value in data set [4] is recorded as “initial hits”. The activity at 2 µM in data set [4] (setting [9]) came to 28.9%; in data set [5] (read-out: % growth T. b. brucei, mean % growth compared to a normalised control with same concentration of DMSO solvent, initial screen), 1.6%. Besides, the inhibition of growth at 2 µM in data set [4] and in data set [5] was > 50% each time. Also, in data set [5] (2 μM), the “initial hit against T. brucei” value was “initial hits”.

For `C=C1C(=O)OC2CC(C)C3C=CC(=O)C3(C)C(OC(=O)C(C)CC)C12` (centres unmarked) [Compound 701158], the CC50 at 48 h in data set [1] (setting [6]) worked out at 0.29 µM. For the same molecule, in data set [2] (setting [8]), the EC50 turned out to be 0.31 µM. For the same molecule, in data set [3], the inhibition of growth at 1 µM is > 50%. Also, in data set [3] (setting [10]), the activity at 1 µM came to 0.454%. Besides, in data set [4], the “initial hit against P. falciparum” value is given as “initial hits”. Further, the inhibition of growth at 2 µM in data set [4] and in data set [5] was > 50% in each case. Besides, the values for the activity at 2 µM in data set [4] (setting [7]) and in data set [5] (setting [11]) were 49% and -1.3%, respectively. Further, the “initial hit against T. brucei” value in data set [5] (2 μM) is recorded as “initial hits”.

As to `CC1=CC(O)(CC(C)C2(C)CC=C3C4=CCC5C(C)(C)C(O)CCC5(C)C4CCC32C)OC1=O` (centres unmarked) [Compound 700022], the CC50 at 48 h in data set [1] (THP1 CC50) came out at 17 µM. In addition, the activity at 1 µM in data set [3] (setting [12]) is 70.8%. Also, the activity at 2 µM in data set [4] (setting [9]) was 105%; in data set [5] (setting [13]), 53.5%.

Take `CC1=CC(O)(CC(C)C2(C)CCC3C4=CCC5C(C)(CCC(O)C5(C)C)C4=CCC32C)OC1=O` (centres unmarked) [Compound 700107]: the CC50 at 48 h in data set [1] (THP1 CC50) was determined as 27 µM. In addition, the activity at 1 µM in data set [3] (setting [12]) is 66.5%. Also, the figures for the activity at 2 µM in data set [4] (setting [9]) and in data set [5] (setting [13]) were 96.8% and 85.2%, respectively.

Turning to `C=C1C(=O)OC2CC(C)C3C=CC(=O)C3(C)C(OC(C)=O)C12` (centres unmarked) [Compound 701155], the half-maximal effective concentration (EC50) in data set [2] (read-out: T. brucei EC50, bloodstream form) was 0.15 µM. Besides, the inhibition of growth at 1 µM in data set [3] is > 50%. The “mean % growth, T. evansi” value in data set [3] (setting [14]) is on record as 1.0%. The “mean % growth, P. falciparum” value in data set [4] (setting [14]) came to 55.1%. For the same molecule, in data set [5] (2 μM), the “initial hit against T. brucei” value is recorded as “initial hits”. Besides, the “mean % growth, T. b. brucei” value in data set [5] (setting [14]) was -0.8%.

For the molecule `C=C1C(=O)OC2CC(C)C3C=CC(=O)C3(C)C(OC(=O)C(C)C)C12` (centres unmarked) [Compound 701157], the CC50 at 48 h in data set [1] (setting [6]) worked out at 0.73 µM. Moreover, in data set [2] (setting [8]), the EC50 worked out at 0.29 µM. In addition, the inhibition of growth at 1 µM in data set [3] was > 50%. The activity at 1 µM in data set [3] (setting [10]) was -4.3%. For the same molecule, the activity at 2 µM in data set [4] (setting [7]) was 51.9%; in data set [5] (setting [11]) it was -1.8%. The “initial hit against T. brucei” value in data set [5] (2 μM) is given as “initial hits”. In data set [5], the inhibition of growth at 2 µM is > 50%.

As for `C/C(=C/C(=O)CC(C)C1CCC2(C)C3=CCC4C(C)(C)C(=O)CCC4(C)C3CCC12C)C(=O)O` (centres unmarked) [Compound 700240], the CC50 at 48 h in data set [1] (THP-1 cells differentiated into macrophages with PMA, differentiated THP-1, 48 h, read-out: THP1 CC50) is 13.5 µM. Also, the activity at 1 µM in data set [3] (setting [12]) was 120%. For the same molecule, the figures for the activity at 2 µM in data set [4] (setting [9]) and in data set [5] (setting [13]) were 77.9% and 72.9%, respectively.

With `CC1=CC(O)(CC(C)C2(C)CC=C3C4=CCC5C(C)(C)C(=O)CCC5(C)C4CCC32C)OC1=O` (centres unmarked) [Compound 700136], the CC50 at 48 h in data set [1] (THP1 CC50) was 17 µM. For the same molecule, the activity at 1 µM in data set [3] (setting [12]) was found to be 76.2%. In addition, the activity at 2 µM in data set [4] (setting [9]) came out at 99.9%; in data set [5] (setting [13]), 104%.

By CC50 is commonly meant the concentration at which the toxic effect on the cells reaches its halfway point. As usually defined, the EC50 is the midpoint of the concentration-response curve.
